Reference: patent US20220220100A1 (SOLUTIA CANADA INC., priority 2019, published 2022)

Legend:
[1] = Photostationary state (PSS) and lambda max under simulated sunlight (solar simulator); type: physicochemical; settings: for PSS (Steady State): head of Table 3; for PSS (Steady State) / PSS (SS): absorbance at photostationary state, 2×10^−5 M solution; for λmax (nm): peak in the visible range, ring-closed (dark) state; for PSS (SS): simulated sunlight (solar simulator)
From the text: The term “photostationary state” (PSS) refers to an equilibrium state of a compound or material where the rate of the ring closing (forward) reaction is equal to the rate of the ring-opening reaction, when irradiated with light in a given region of the spectrum. In other words, the ratio of the ring-open isomer to the ring-closed isomer is at an equilibrium. PSS may be expressed with reference to a light source, or with reference to a type of light, for example, QUV, Xenon-arc lamp, Q-SUN, natural or filtered sunlight, UV, VIS, IR, NIR, full spectrum or the like, or with reference to a particular wavelength or range of wavelengths, or in the presence or absence of a filter. Some ring-open and ring-closed isomers may undergo isomerization from one to the other in response to different wavelengths of light. If a wavelength of light is used where only one of the isomers absorbs, irradiation results in complete isomerization to the other form. 254 nm, 313 nm or 365 nm light are commonly used in studies of UV-absorbing isomers, but this may not be representative of the PSS under other light conditions that include the visible spectrum such as natural or simulated sunlight (“full spectrum” light) and/or with filters that block a portion of the UV component of the light. For example, in a ring-closed (dark) state, the magnitude of the maximum absorbance in the visible range may change with the light source (FIG. 1). The wavelength at this peak in the visible range may be referred to as lambda max, or λmax. […] When full spectrum light from a solar simulator (Xenon arc lamp) is used as a light source (line B), a balance is achieved between the ring-closed (dark) state induced by the UV component, and a ring-open (faded) state induced by the visible component of the light. Inclusion of a UV blocking layer in the light path (line A) may reduce the UV component of the light, and the ring-opening reaction induced by the visible light component becomes more prominent. […] Where desired, the ratio of ring-open and ring-closed isomers at a PSS may be quantified by ^1H NMR spectroscopy, such as described in U.S. Pat. No. 7,777,055. In various embodiments, compounds with an increased absorbance at a photostationary state (PSS), or increased contrast ratio, are an improvement over other diarylethene compounds. A compound with a greater absorbance in the visible range can be used in lesser quantities in a formulation or material to achieve a desired contrast ratio, whereas a compound with a lower absorbance at a PSS may need a higher concentration to achieve a desired contrast ratio.
Photostationary State (PSS)
UV/Vis spectra were obtained using an OceanOptics™ Spectrophotometer. A 2×10^−5 M solution of compound in solvent was prepared, and photofaded using visible light until absorption in the visible region of the spectrum stabilized. The sample was then irradiated with simulated sunlight (QSUN SS-150 Solar Simulator with xenon arc lamp) until the absorption spectrum stabilized. To obtain PSS in the presence of a UV blocking film, a second sample was prepared and irradiated as described, with a UV blocking film inserted in the light path when irradiating.

[2] = Solubility in Rhodiasolv IRIS solvent; type: physicochemical; settings: for Solubility in Rhodiasolv IRIS: Rhodiasolv IRIS (dimethyl-2-methyl glutarate), wt %; for Solubility (in words): relative to the methoxy parent chromophore
From the text: A compound with greater solubility allows for a formulation or material with a greater concentration of coloured molecule to be incorporated into a composition. This may allow for increasing the contrast ratio for a compound with a lesser absorbance at PSS. Examples of solubilizing groups for the compound include alkoxy, ether, ester or siloxy groups. In various embodiments, compounds may be soluble in the solvent component at room temperature at about 6 wt %, 7 wt %, 8 wt %, 9 wt %, 10 wt % or greater for testing to determine whether a compound has application as an exterior glazing or optical filter. If the solubility of a compound in the solvent component is too low, then insufficient darkening may be achieved in the ring-closed configuration, depending on conditions of use for the compound.
Chromophore solutions in Rhodiasolv IRIS were prepared at 1 to 10 wt % loading. Solutions were prepared in a glovebox by charging the chromophore and Rhodiasolv IRIS to a trace-clean vial, and the solution was stirred on a hotplate at 90° C. for 2-24 hours. After cooling, the chromophore solution was injected into glass weathering cells and the fill and vent ports were sealed with a thin disc of Kalrez (FFKM Perfluorinated Elastomer) and secured with a clamp and set-screw. The weathering cells were filled and sealed inside the glove box.

SMILES	PSS (Steady State) [1]	λmax (nm) [1] [nm]	Solubility in Rhodiasolv IRIS [2] [%]	PSS (SS) [1]	Solubility (in words) [2]
COc1ccc2c(C3=C(c4cc(-c5ccc(C(C)(C)C)s5)sc4-c4ccc(C(C)(C)C)s4)C(F)(F)C(F)(F)C3(F)F)c(-c3ccc(C(C)(C)C)cc3)oc2c1	0.255	575	<3	–	–
COc1cc2oc(-c3ccc(C(C)(C)C)cc3)c(C3=C(c4cc(-c5cc6c(s5)C(C)(C)CCC6(C)C)sc4-c4cc5c(s4)C(C)(C)CCC5(C)C)C(F)(F)C(F)(F)C3(F)F)c2cc1OC	–	594	<3	0.358	–
COCCCOc1cc2oc(-c3ccc(C(C)(C)C)cc3)c(C3=C(c4cc(-c5cc(C(C)(C)C)cs5)sc4-c4cc(C(C)(C)C)cs4)C(F)(F)C(F)(F)C3(F)F)c2cc1OCCCOC	–	594	>10	0.319	–
CC(C)(C)c1ccc(-c2oc3cc(OCCN4C(=O)CCC4=O)c(OCCN4C(=O)CCC4=O)cc3c2C2=C(c3cc(-c4cc(C(C)(C)C)cs4)sc3-c3cc(C(C)(C)C)cs3)C(F)(F)C(F)(F)C2(F)F)cc1	–	585	>10	0.364	–
COc1cc2oc(-c3ccc(C(C)(C)C)cc3)c(C3=C(c4cc(-c5ccc(C(C)(C)C)s5)sc4-c4ccc(C(C)(C)C)s4)C(F)(F)C(F)(F)C3(F)F)c2cc1OC [Chromophore S340, 2-(4-(tert-butyl)phenyl)-3-(2-(5,5″-di-tert-butyl-[2,2′:5′,2″-terthiophen]-3′-yl)-3,3,4,4,5,5-hexafluorocyclopent-1-en-1-yl)-5,6-dimethoxybenzofuran]	0.417	591	7	–	–
CC(C)(C)c1ccc(-c2oc3ccccc3c2C2=C(c3cc(-c4ccc(C(C)(C)C)s4)sc3-c3ccc(C(C)(C)C)s3)C(F)(F)C(F)(F)C2(F)F)cc1 [Chromophore S343, 2-(4-(tert-butyl)phenyl)-3-(2-(5,5″-di-tert-butyl-[2,2′:5′,2″-terthiophen]-3′-yl)-3,3,4,4,5,5-hexafluorocyclopent-1-en-1-yl)benzofuran]	0.315	573	<1	–	–
COc1ccc2oc(-c3ccc(C(C)(C)C)cc3)c(C3=C(c4cc(-c5ccc(C(C)(C)C)s5)sc4-c4ccc(C(C)(C)C)s4)C(F)(F)C(F)(F)C3(F)F)c2c1 [Chromophore S344, 2-(4-(tert-butyl)phenyl)-3-(2-(5,5″-di-tert-butyl-[2,2′:5′,2″-terthiophen]-3′-yl)-3,3,4,4,5,5-hexafluorocyclopent-1-en-1-yl)-5-methoxybenzofuran]	0.337	583	<3	–	–
COCCOc1cc2oc(-c3ccc(C(C)(C)C)cc3)c(C3=C(c4cc(-c5ccc(C(C)(C)C)s5)sc4-c4ccc(C(C)(C)C)s4)C(F)(F)C(F)(F)C3(F)F)c2cc1OCCOC [Chromophore S364, 2-(4-(tert-butyl)phenyl)-3-(2-(5,5″-di-tert-butyl-[2,2′:5′,2″-terthiophen]-3′-yl)-3,3,4,4,5,5-hexafluorocyclopent-1-en-1-yl)-5,6-bis(2-methoxyethoxy)benzofuran]	0.427	593	>10	–	improved
CC(=O)Oc1cc2oc(-c3ccc(C(C)(C)C)cc3)c(C3=C(c4cc(-c5ccc(C(C)(C)C)s5)sc4-c4ccc(C(C)(C)C)s4)C(F)(F)C(F)(F)C3(F)F)c2cc1OC(C)=O [Chromophore S367, 2-(4-(tert-butyl)phenyl)-3-(2-(5,5″-di-tert-butyl-[2,2′:5′,2″-terthiophen]-3′-yl)-3,3,4,4,5,5-hexafluorocyclopent-1-en-1-yl)benzofuran-5,6-diyl diacetate]	0.32	583	>10	–	improved
CCOC(=O)CCCOc1cc2oc(-c3ccc(C(C)(C)C)cc3)c(C3=C(c4cc(-c5ccc(C(C)(C)C)s5)sc4-c4ccc(C(C)(C)C)s4)C(F)(F)C(F)(F)C3(F)F)c2cc1OCCCC(=O)OCC [Chromophore S374, diethyl 4,4′-((2-(4-(tert-butyl)phenyl)-3-(2-(5,5″-di-tert-butyl-[2,2′:5′,2″-terthiophen]-3′-yl)-3,3,4,4,5,5-hexafluorocyclopent-1-en-1-yl)benzofuran-5,6-diyl)bis(oxy))dibutanoate]	0.422	590	>10	–	improved
COc1cc2oc(-c3ccc(C(C)(C)C)cc3)c(C3=C(c4cc(-c5cc(C(C)(C)C)cs5)sc4-c4cc(C(C)(C)C)cs4)C(F)(F)C(F)(F)C3(F)F)c2cc1OC [Chromophore S377, 2-(4-(tert-butyl)phenyl)-3-(2-(4,4″-di-tert-butyl-[2,2′:5′,2″-terthiophen]-3′-yl)-3,3,4,4,5,5-hexafluorocyclopent-1-en-1-yl)-5,6-dimethoxybenzofuran]	–	593	>5	0.308	–
COc1cc2oc(-c3ccc(C(C)(C)C)cc3)c(C3=C(c4cc(-c5ccc(C(C)(C)C)s5)sc4-c4sc(C(C)(C)C)cc4C)C(F)(F)C(F)(F)C3(F)F)c2cc1OC [Chromophore S378, 2-(4-(tert-butyl)phenyl)-3-(2-(5,5″-di-tert-butyl-3-methyl-[2,2′:5′,2″-terthiophen]-3′-yl)-3,3,4,4,5,5-hexafluorocyclopent-1-en-1-yl)-5,6-dimethoxybenzofuran]	0.351	593	<5	–	–
CCOC(=O)CCCOc1cc2oc(-c3ccc(C(C)(C)C)cc3)c(C3=C(c4cc(-c5ccc(C(C)(C)C)s5)sc4-c4sc(C(C)(C)C)cc4C)C(F)(F)C(F)(F)C3(F)F)c2cc1OCCCC(=O)OCC [Chromophore S383, diethyl 4,4′-((2-(4-(tert-butyl)phenyl)-3-(2-(5,5″-di-tert-butyl-3-methyl-[2,2′:5′,2″-terthiophen]-3′-yl)-3,3,4,4,5,5-hexafluorocyclopent-1-en-1-yl)benzofuran-5,6-diyl)bis(oxy))dibutanoate]	0.408	590	>10	–	improved solubility
